System: 958667-338-R-J2-PDC tumor spheroids viability
Test: Anticancer human tumor 958667-338-R-J2-PDC patient-derived colon adenocarcinoma cell line growth inhibition [PI3K]
Settings: spheroids with HUVEC and MSC; for IC50: curve of first compound; for viability, T/C: stronger effect = lower value
Summary of the method: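 Combination activity was assessed by viability in multicellular tumor spheroids carrying HUVEC and MSC components. Agents were tested with PI3K inhibitors from a Cmax-based top dose (or 10 microM) downward in half-log increments.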

[1] = second compound 0.0316 µM, first compound 0.0316 µM
[2] = second compound 0.0316 µM, first compound 0.1 µM
[3] = second compound 0.0316 µM, first compound 0.316 µM
[4] = second compound 0.0316 µM, first compound 1 µM
[5] = second compound 0.0316 µM, first compound 3.16 µM
[6] = second compound 0.0316 µM, first compound 10 µM
[7] = second compound 0.1 µM, first compound 0.0316 µM
[8] = second compound 0.1 µM, first compound 0.1 µM
[9] = second compound 0.1 µM, first compound 0.316 µM
[10] = second compound 0.1 µM, first compound 1 µM
[11] = second compound 0.1 µM, first compound 3.16 µM
[12] = second compound 0.1 µM, first compound 10 µM
[13] = second compound 0.316 µM, first compound 0.0316 µM
[14] = second compound 0.316 µM, first compound 0.1 µM
[15] = second compound 0.316 µM, first compound 0.316 µM
[16] = second compound 0.316 µM, first compound 1 µM
[17] = second compound 0.316 µM, first compound 3.16 µM
[18] = second compound 0.316 µM, first compound 10 µM
[19] = second compound 1 µM, first compound 0.0316 µM
[20] = second compound 1 µM, first compound 0.1 µM
[21] = second compound 1 µM, first compound 0.316 µM
[22] = second compound 1 µM, first compound 1 µM
[23] = second compound 1 µM, first compound 3.16 µM
[24] = second compound 1 µM, first compound 10 µM
[25] = second compound 3.16 µM, first compound 0.0316 µM
[26] = second compound 3.16 µM, first compound 0.1 µM
[27] = second compound 3.16 µM, first compound 0.316 µM
[28] = second compound 3.16 µM, first compound 1 µM
[29] = second compound 3.16 µM, first compound 3.16 µM
[30] = second compound 3.16 µM, first compound 10 µM
[31] = second compound 10 µM, first compound 0.0316 µM
[32] = second compound 10 µM, first compound 0.1 µM
[33] = second compound 10 µM, first compound 0.316 µM
[34] = second compound 10 µM, first compound 1 µM
[35] = second compound 10 µM, first compound 3.16 µM
[36] = second compound 10 µM, first compound 10 µM
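Further: spheroids exposed to compounds for seven days before readout.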

Which IC50 (second compound 0.0316 µM) does the source give for CC(Cn1ccc(-c2ccc(C#N)c(Cl)c2)n1)NC(=O)c1cc(C(C)O)[nH]n1 (stereo unspecified) + Cc1nc(NC(=O)N2CCCC2C(N)=O)sc1-c1ccnc(C(C)(C)C(F)(F)F)c1 here?
Its IC50 is greater than 10 µM.

What about the IC50 (second compound 0.1 µM) of the same compound?
Its IC50 is greater than 10 µM.

And the IC50 (second compound 0.316 µM)?
The IC50 was greater than 10 µM.

What about the IC50 (second compound 1 µM) of the same compound?
The IC50 was greater than 10 µM.

What about the IC50 (second compound 3.16 µM) of the same compound?
Its IC50 is greater than 10 µM.

And the IC50 (second compound 10 µM)?
The IC50 was greater than 10 µM.

And the viability, T/C [1]?
The viability, T/C was 78.8%.

What about the viability, T/C [2] of the same compound?
Its viability, T/C is 98.7%.

And the viability, T/C [3]?
The viability, T/C was 84.2%.

And the viability, T/C [4]?
Its viability, T/C is 114%.

And the viability, T/C [5]?
Its viability, T/C is 102%.

And the viability, T/C [6]?
The viability, T/C was 107%.

And the viability, T/C [7]?
Its viability, T/C is 86.8%.

And the viability, T/C [8]?
The viability, T/C was 92.8%.

What about the viability, T/C [9] of the same compound?
Its viability, T/C is 97.9%.

And the viability, T/C [10]?
The viability, T/C was 81.9%.

And the viability, T/C [11]?
The viability, T/C was 91.9%.

And the viability, T/C [12]?
The viability, T/C was 74.8%.

What about the viability, T/C [13] of the same compound?
Its viability, T/C is 106%.

What about the viability, T/C [14] of the same compound?
Its viability, T/C is 87.8%.

What about the viability, T/C [15] of the same compound?
The viability, T/C was 90.8%.

And the viability, T/C [16]?
Its viability, T/C is 94.5%.

And the viability, T/C [17]?
Its viability, T/C is 86.3%.

What about the viability, T/C [18] of the same compound?
The viability, T/C was 92.3%.

What about the viability, T/C [19] of the same compound?
Its viability, T/C is 62.9%.

What about the viability, T/C [20] of the same compound?
Its viability, T/C is 65.9%.

What about the viability, T/C [21] of the same compound?
The viability, T/C was 95.9%.

And the viability, T/C [22]?
The viability, T/C was 72.8%.

What about the viability, T/C [23] of the same compound?
The viability, T/C was 92.7%.

What about the viability, T/C [24] of the same compound?
The viability, T/C was 80%.

And the viability, T/C [25]?
The viability, T/C was 76.3%.

What about the viability, T/C [26] of the same compound?
Its viability, T/C is 55%.

What about the viability, T/C [27] of the same compound?
Its viability, T/C is 62.8%.

And the viability, T/C [28]?
Its viability, T/C is 68.4%.

What about the viability, T/C [29] of the same compound?
The viability, T/C was 85.4%.

What about the viability, T/C [30] of the same compound?
Its viability, T/C is 72.6%.

What about the viability, T/C [31] of the same compound?
Its viability, T/C is 52.5%.

And the viability, T/C [32]?
The viability, T/C was 59.7%.

And the viability, T/C [33]?
Its viability, T/C is 47.7%.

And the viability, T/C [34]?
The viability, T/C was 59.7%.

What about the viability, T/C [35] of the same compound?
Its viability, T/C is 72%.

And the viability, T/C [36]?
Its viability, T/C is 50.5%.

Which results are given for Cn1ncc(Cl)c1-c1cc(C(=O)NC(CN)Cc2cccc(F)c2)sc1Cl (stereo unspecified) + Cc1nc(NC(=O)N2CCCC2C(N)=O)sc1-c1ccnc(C(C)(C)C(F)(F)F)c1?
IC50 (second compound 0.0316 µM): 2.45 µM; IC50 (second compound 0.1 µM): 2.05 µM; IC50 (second compound 0.316 µM): 1.88 µM; IC50 (second compound 1 µM): 1.59 µM; IC50 (second compound 3.16 µM): 1.31 µM; IC50 (second compound 10 µM): < 0.0316 µM; viability, T/C [1]: 88.2%; viability, T/C [2]: 84.3%; viability, T/C [3]: 89.2%; viability, T/C [4]: 70.5%; viability, T/C [5]: 44.7%; viability, T/C [6]: 37.2%; viability, T/C [7]: 84.4%; viability, T/C [8]: 81.7%; viability, T/C [9]: 97.5%; viability, T/C [10]: 69.5%; viability, T/C [11]: 41.3%; viability, T/C [12]: 34.8%; viability, T/C [13]: 71.4%; viability, T/C [14]: 65.6%; viability, T/C [15]: 64.6%; viability, T/C [16]: 63.7%; viability, T/C [17]: 39%; viability, T/C [18]: 26.9%; viability, T/C [19]: 71.7%; viability, T/C [20]: 80.9%; viability, T/C [21]: 57.3%; viability, T/C [22]: 63.7%; viability, T/C [23]: 31.2%; viability, T/C [24]: 24.9%; viability, T/C [25]: 66.7%; viability, T/C [26]: 64.4%; viability, T/C [27]: 72%; viability, T/C [28]: 56%; viability, T/C [29]: 27.6%; viability, T/C [30]: 18.1%; viability, T/C [31]: 49.4%; viability, T/C [32]: 44.7%; viability, T/C [33]: 46%; viability, T/C [34]: 41.7%; viability, T/C [35]: 23.8%; viability, T/C [36]: 15.1%

Which IC50 (second compound 0.0316 µM) does the source give for Cn1nccc1Nc1nccc(-c2ccn(C(CO)c3ccc(Cl)c(F)c3)c(=O)c2)n1 (stereo unspecified) + Cc1nc(NC(=O)N2CCCC2C(N)=O)sc1-c1ccnc(C(C)(C)C(F)(F)F)c1 here?
Its IC50 is greater than 10 µM.

What about the IC50 (second compound 0.1 µM) of the same compound?
The IC50 was greater than 10 µM.

What about the IC50 (second compound 0.316 µM) of the same compound?
Its IC50 is greater than 10 µM.

And the IC50 (second compound 1 µM)?
Its IC50 is 8.05 µM.

What about the IC50 (second compound 3.16 µM) of the same compound?
The IC50 was 3.66 µM.

What about the IC50 (second compound 10 µM) of the same compound?
The IC50 was 1.6 µM.

And the viability, T/C [1]?
The viability, T/C was 113%.

And the viability, T/C [2]?
Its viability, T/C is 105%.

And the viability, T/C [3]?
The viability, T/C was 119%.

And the viability, T/C [4]?
The viability, T/C was 101%.

What about the viability, T/C [5] of the same compound?
Its viability, T/C is 79.5%.

And the viability, T/C [6]?
The viability, T/C was 77.2%.

What about the viability, T/C [7] of the same compound?
The viability, T/C was 137%.

What about the viability, T/C [8] of the same compound?
The viability, T/C was 98%.

And the viability, T/C [9]?
The viability, T/C was 97.2%.

And the viability, T/C [10]?
Its viability, T/C is 79.8%.

And the viability, T/C [11]?
The viability, T/C was 75%.

What about the viability, T/C [12] of the same compound?
Its viability, T/C is 71.8%.

What about the viability, T/C [13] of the same compound?
Its viability, T/C is 99.6%.

What about the viability, T/C [14] of the same compound?
Its viability, T/C is 92.8%.

What about the viability, T/C [15] of the same compound?
The viability, T/C was 91.3%.

What about the viability, T/C [16] of the same compound?
Its viability, T/C is 72%.

What about the viability, T/C [17] of the same compound?
The viability, T/C was 82.2%.

What about the viability, T/C [18] of the same compound?
The viability, T/C was 67.4%.

And the viability, T/C [19]?
The viability, T/C was 101%.

And the viability, T/C [20]?
Its viability, T/C is 85.9%.

What about the viability, T/C [21] of the same compound?
The viability, T/C was 84.5%.

And the viability, T/C [22]?
Its viability, T/C is 68.8%.

And the viability, T/C [23]?
The viability, T/C was 77.8%.

What about the viability, T/C [24] of the same compound?
Its viability, T/C is 42.1%.

And the viability, T/C [25]?
The viability, T/C was 65.8%.

What about the viability, T/C [26] of the same compound?
Its viability, T/C is 78.8%.

And the viability, T/C [27]?
Its viability, T/C is 74.6%.

And the viability, T/C [28]?
The viability, T/C was 90.4%.

What about the viability, T/C [29] of the same compound?
Its viability, T/C is 56.6%.

And the viability, T/C [30]?
The viability, T/C was 4.78%.

What about the viability, T/C [31] of the same compound?
The viability, T/C was 68%.

And the viability, T/C [32]?
The viability, T/C was 55.8%.

What about the viability, T/C [33] of the same compound?
The viability, T/C was 67.1%.

And the viability, T/C [34]?
Its viability, T/C is 72.4%.

And the viability, T/C [35]?
Its viability, T/C is 26.9%.

What about the viability, T/C [36] of the same compound?
Its viability, T/C is 5.35%.
